We go through 19 compounds from US7745636B2, “Hepatitis C virus inhibitors” (Bristol-Myers Squibb Company, priority 2006, dated 2010).

Where two headings read alike, the source gives them in different places.

The subject of the test is HCV 1b-377-neo replicon cells. Briefly: HCV Replicon assay, HCV 1b-377-neo replicon cells. The conditions noted are these: Table 2, read-out: Range (EC50 against HCV 1b). Format: cell-based, HCV 1b genotype. On the procedure:
An HCV Replicon assay was utilized in the present disclosure, and was prepared, conducted and validated as described in commonly owned PCT/US2006/022197 and in O'Boyle et. al. Antimicrob Agents Chemother. 2005 April; 49(4):1346-53.
HCV 1b-377-neo replicon cells were used to test the currently described compound series as well as cells resistant to compound A due to a Y2065H mutation in NS5A (described in application PCT/US2006/022197). The compounds tested were determined to have more than 10-fold less inhibitory activity on cells resistant to compound A than wild-type cells indicating a related mechanism of action between the two compound series. Thus, the compounds of the present disclosure can be effective to inhibit the function of the HCV NS5A protein and are understood to be as effective in combinations as previously described in application PCT/US2006/022197 and commonly owned WO/O4014852. Further, the compounds of the present disclosure can be effective against the HCV 1b genotype. It should also be understood that the compounds of the present disclosure can inhibit multiple genotypes of HCV. […] In one embodiment compounds of the present disclosure are active against the 1a, 1b, 2a, 2b, 3a, 4a, and 5a genotypes.

For the compound `CN(C)[C@@H](C(=O)N1CCC[C@H]1c1ncc(-c2ccc(-c3ccc(-c4cnc([C@@H]5CCCN5C(=O)[C@@H](c5ccccc5)N(C)C)[nH]4)cn3)cc2)[nH]1)c1ccccc1` [Example 132, (1R)-2-((2S)-2-(5-(6-(4-(2-((2S)-1-((2R)-2-(dimethylamino)-2-phenylacetyl)-2-pyrrolidinyl)-1H-imidazol-5-yl)phenyl)-3-pyridinyl)-1H-imidazol-2-yl)-1-pyrrolidinyl)-N,N-dimethyl-2-oxo-1-phenylethanamine], the 50% effective concentration (EC50) (commonly the concentration giving half of the maximal effect) (Hepatitis C virus) fell in the range of 0.001 to 0.999 nM.

As to `COC(=O)N[C@@H](C(=O)N1CCC[C@H]1c1ncc(-c2ccc(-c3ccc(-c4cnc([C@@H]5CCCN5C(=O)[C@H](NC(=O)OC)c5ccccc5)[nH]4)nn3)nn2)[nH]1)c1ccccc1` [Example 153c-2, dimethyl (3,3′-bipyridazine-6,6′-diylbis(1H-imidazole-5,2-diyl(2S)-2,1-pyrrolidinediyl((1R)-2-oxo-1-phenyl-2,1-ethanediyl))) biscarbamate], the half-maximal effective concentration (EC50) (Hepatitis C virus) lay within 1 to 99 nM. As to `COC(=O)N[C@@H](C(=O)N[C@@H](C)c1ncc(-c2ccc(-c3ccc(-c4cnc([C@@H]5CCCN5C(=O)[C@H](NC(=O)OC)c5ccccc5)[nH]4)cn3)cc2)[nH]1)c1ccccc1` [Example 152j-12, methyl ((1R)-2-((2S)-2-(5-(6-(4-(2-((1S)-1-(((2R)-2-((methoxycarobnyl)amino)-2-phenylace-tyl)amino)eth-yl)-1H-imidazol-5-yl)phenyl)-3-pyridinyl)-1H-imidazol-2-yl)-1-pyrrolidinyl)-2-oxo-1-phenylethyl)carbamate], the EC50 (Hepatitis C virus) was in the range of 0.001 to 0.999 nM.

On to `COC(=O)N[C@@H](C(=O)N1CCC[C@H]1c1ncc(-c2cnc(-c3ncc(-c4cnc([C@@H]5CCCN5C(=O)[C@H](NC(=O)OC)c5ccccc5)[nH]4)cn3)nc2)[nH]1)c1ccccc1` [Example 153c-4, dimethyl (2,2′-bipyrimidine-5,5′-diylbis(1H-imidazole-5,2-diyl(2S)-2,1-pyrrolidinediyl((1R)-2-oxo-1-phenyl-2,1-ethanediyl))) biscarbamate], for which the EC50 (Hepatitis C virus) lay within 1000 to 10000 nM.

With `COC(=O)N[C@@H](C)C(=O)N1CCC[C@H]1c1nc(-c2cnc(-c3ccc(-c4cnc([C@@H]5CCCN5C(=O)[C@H](C)NC(=O)OC)[nH]4)cc3)nc2)c[nH]1` [Example D73, methyl ((1S)-2-((2S)-2-(5-(4-(5-(2-((2S)-1-(N-(methoxycarbonyl)-L-alanyl)-2-pyrrolidinyl)-1H-imidazol-5-yl)-2-pyrimi-dinyl)phenyl)-1H-imidazol-2-yl)-1-pyrrolidinyl)-1-methyl-2-oxoethyl)carbamate], where the note is “Hepatitis C virus”, the half-maximal effective concentration (EC50) is 0.001 to 0.999 nM. On the same count and under the same terms, under `C[C@H](NC(=O)[C@@H](c1ccccc1)N(C)C)c1ncc(-c2cnc(-c3ccc(-c4cnc([C@@H]5CCCN5C(=O)[C@@H](c5ccccc5)N(C)C)[nH]4)cc3)nc2)[nH]1` [Example 152j-16, (2R)-2-(dimethylamino)-N-((1S)-1-(5-(2-(4-(2-((2S)-1-((2R)-2-(dimethylamino)-2-phenylacetyl)-2-pyrrolidinyl)-1H-imidazol-5-yl)phenyl)-5-pyrimidinyl)-1H-imidazol-2-yl)ethyl)-2-phenylacetamide] stands 0.001 to 0.999 nM. Turning to `CN(C)[C@@H](C(=O)N1CCC[C@H]1c1ncc(-c2cnc(-c3cnc(-c4cnc([C@@H]5CCCN5C(=O)[C@@H](c5ccccc5)N(C)C)[nH]4)cn3)cn2)[nH]1)c1ccccc1` [Example 153c-5, (1R,1′R)-2,2′-(2,2′-bipyrazine-5,5′-diylbis(1H-imidazole-5,2-diyl(2S)-2,1-pyrrolidinediyl))bis(N, N-dimethyl-2-oxo-1-phenylethanamine)], the 50% effective concentration (EC50) (Hepatitis C virus) lay in the range of 1 to 99 nM. Same read-out and setting: under `COC(=O)N[C@@H](C(=O)N1CCC[C@H]1c1ncc(-c2cnc(-c3cnc(-c4cnc([C@@H]5CCCN5C(=O)[C@H](NC(=O)OC)c5ccccc5)[nH]4)cn3)cn2)[nH]1)c1ccccc1` [Example 153c-6, dimethyl (2,2′-bipyrazine-5,5′-diylbis(1H-imidazole-5,2-diyl(2S)-2,1-pyrrolidinediyl((1R)-2-oxo-1-phenyl-2,1-ethanediyl))) biscarbamate] stands 1 to 99 nM. Same read-out and setting: next, `COC(=O)N[C@@H](C(=O)N[C@@H](C)c1ncc(-c2ccc(-c3ncc(-c4cnc([C@@H]5CCCN5C(=O)[C@@H](c5ccccc5)N5CCCCC5)[nH]4)cn3)cc2)[nH]1)c1ccccc1` [Example 152l-2, methyl ((1R)-2-oxo-1-phenyl-2-(((1S)-1-(4-(4-(5-(2-((2S)-1-((2R)-2-phenyl-2-(1-piperidinyl)acetyl)-2-pyrrolidinyl)-1H-imidazol-5-yl)-2-pyrimidinyl)phenyl)-1H-imidazol-2-yl)ethyl)amino)ethyl) carbamate]: 0.001 to 0.999 nM.

`COC(=O)N[C@@H](C(=O)N1CCC[C@H]1c1ncc(-c2ccc(-c3ccc(-c4cnc([C@@H]5CCCN5C(=O)[C@H]5CCCO5)[nH]4)cn3)cc2)[nH]1)c1ccccc1` [Example 141, methyl ((1R)-2-oxo-1-phenyl-2-((2S)-2-(5-(4-(5-(2-((2S)-1-((2R)-tetrahydro-2-furanylcarbonyl)-2-pyrrolidinyl)-1H-imidazol-5-yl)-2-pyridinyl)phenyl)-1H-imidazol-2-yl)-1-pyrrolidinyl)ethyl)carbamate]: the 50% effective concentration (EC50) (Hepatitis C virus) was in the range of 0.001 to 0.999 nM. For `COC(=O)N[C@H](C(=O)N1CCC[C@H]1c1ncc(-c2ccc(-c3ccc(-c4cnc([C@@H]5CCCN5C(=O)CN(C(C)C)C(C)C)[nH]4)cc3)cc2)[nH]1)C(C)C` [LS26], the EC50 lay in the range of 0.001 to 0.999 nM.

With `CN(C)[C@@H](C(=O)N1CSC[C@H]1c1ncc(-c2ccc(-c3ccc(-c4cnc([C@@H]5CSCN5C(=O)[C@@H](c5ccccc5)N(C)C)[nH]4)cc3)cc2)[nH]1)c1ccccc1` [Example 148, (1R,1′R)-2,2′-(4,4′-biphenyldiylbis(1H-imidazole-5,2-diyl(4R)-1,3-thiazolidine-4,3-diyl))bis(N,N-dimethyl-2-oxo-1-phenylethanamine)], the EC50 (Hepatitis C virus) lay within 1 to 99 nM. The same measure, in the same setting: next, `COC(=O)N[C@H](C(=O)Nc1ncc(-c2ccc(-c3ccc(-c4cnc([C@@H]5CCCN5C(=O)[C@@H](NC(=O)OC)C(C)C)[nH]4)cc3)cc2)[nH]1)C(C)C` [Example R33, (S)-2-methoxycarbonylamino-N-(5-(4′-(2-((S)-1-((S)-2-methoxycarbonylamino-3-methylbutanoyl)pyrrolidin-2-yl)-1H-imidazol-5-yl)biphenyl-4-yl)-1H-imidazol-2-yl)-3-methylbutanamide]: 1 to 99 nM; `COC(=O)N[C@@H](C(=O)N[C@@H](C)c1ncc(-c2ccc(-c3ccc(-c4cnc([C@@H]5CCCN5C(=O)[C@H](NC(=O)OC)c5ccccc5)[nH]4)nn3)cc2)[nH]1)c1ccccc1` [Example 152j-14, methyl ((1R)-2-((2S)-2-(5-(6-(4-(2-((1S)-1-(((2R)-2-((methoxycarobnyl)amino)-2-phenylace-tyl)amino)eth-yl)-1H-imidazol-5-yl)phenyl)-3-pyridazinyl)-1H-imidazol-2-yl)-1-pyrrolidinyl)-2-oxo-1-phenylethyl)carbamate]: 1 to 99 nM.

Turning to `COC(=O)N[C@H](C(=O)N1CCC[C@H]1c1ncc(-c2ccc(-c3ccc(-c4cnc([C@@H]5CCCN5C(=O)[C@@H](Nc5noc(N)n5)C(C)C)[nH]4)cc3)cc2)[nH]1)C(C)C` [cj-16, methyl((1S)-1-(((2S)-2-(5-(4′-(2-((2S)-1-(N-(5-amino-1,2,4-oxadiazol-3-yl)-L-valyl)-2-pyrrolidinyl)-1H-imidazol-5-yl)-4-biphenylyl)-1H-imidazol-2-yl)-1-pyrrolidinyl)carbonyl)-2-methylpropyl)carbamate], the EC50 (Hepatitis C virus) lay in the range of 0.001 to 0.999 nM. Still for that read-out and setting: under `COC(=O)N[C@@H](C(=O)N1CCC[C@H]1c1ncc(-c2cnc(-c3ccc(-c4[nH]c([C@@H]5CCCN5C(=O)[C@H](NC(=O)OC)c5ccccc5)nc4C(F)(F)F)cc3)nc2)[nH]1)c1ccccc1` [Example J46, methyl ((1R)-2-((2S)-2-(5-(4-(5-(2-((2S)-1-((2R)-2-((methoxycarbonyl)amino)-2-phenylacetyl)-2-pyrrolidinyl)-1H-imidazol-5-yl)-2-pyrimidinyl)phenyl)-4-(trifluoromethyl)-1H-imidazol-2-yl)-1-pyrrolidinyl)-2-oxo-1-phenylethyl) carbamate] stands 0.001 to 0.999 nM. In the case of `C=CCCOC(=O)N[C@H](C(=O)N1CCC[C@H]1c1ncc(-c2ccc(-c3ccc(-c4cnc([C@@H]5CCCN5C(=O)[C@@H](NC(=O)OCCC=C)C(C)C)[nH]4)cc3)cc2)[nH]1)C(C)C` [LS16], the EC50 lay in the range of 1 to 99 nM. Regarding `CN(C)[C@@H](C(=O)N1CCC[C@H]1c1ncc(-c2ccc(-c3ccc(-c4cnc([C@@H]5CCCN5C(=O)[C@@H](c5ccccc5)N(C)C)[nH]4)nn3)nn2)[nH]1)c1ccccc1` [Example 153c-1, (1R,1′R)-2,2′-(3,3′-bipyridazine-6,6′-diylbis(1H-imidazole-5,2-diyl(2S)-2,1-pyrrolidinediyl))bis(N, N-dimethyl-2-oxo-1-phenylethanamine)], the EC50 (Hepatitis C virus) is 1 to 99 nM. As for `C[C@@H](c1ncc(-c2ccc(-c3ccc(-c4cnc([C@@H]5CCCN5C(=O)[C@@H](c5ccccc5)N(C)C)[nH]4)cc3)cc2)[nH]1)N(C)C(=O)[C@@H](c1ccccc1)N(C)C` [Example 24-18-5, (2R)-2-(dimethylamino)-N-((1S)-1-(5-(4′-(2-((2S)-1-((2R)-2-(dimethylamino)-2-phenylacetyl)-2-pyrrolidinyl)-1H-imidazol-5-yl)-4-biphenylyl)-1H-imidazol-2-yl)ethyl)-N-methyl-2-phenylacetamide], the EC50 (Hepatitis C virus) lay within 0.001 to 0.999 nM.
